Consider 13 compounds from patent US12209102B2, “Heterocyclic compounds and uses thereof” (Kumquat Biosciences Inc., priority 2022, dated 2025).

As a reminder, the IC50 is the concentration at which inhibition is half-maximal.

Holding throughout (format): biochemical
For assay [1], the target named is T1, K-Ras G12S (Homo sapiens, UniProt P01116, G12S).
T1 construct: made in house; host or cells: E. coli BL21 (DE3)
The assay is described as follows: HTRF resonance energy transfer assay, K-Ras G12S / SOS1 interaction. To be noted: HTRF assay of Example 5; read-out: IC50 against K-Ras G12S. The source says:
(§1) This assay can be also used to assess a selective inhibition or reduction of signaling output of a mutant Ras protein relative to a wildtype, or relative to a different mutant Ras protein. For example, the equilibrium interaction of wildtype Kras or K-Ras mutant (e.g., wildtype or a mutant thereof) with SOS1 (e.g., hSOS1) can be assessed as a proxy or an indication for a subject compound's ability to bind and inhibit Ras protein. HTRF assay detects from (i) a fluorescence resonance energy transfer (FRET) donor (e.g., antiGST-Europium) that is bound to GST-tagged K-Ras mutant to (ii) a FRET acceptor (e.g., anti-6His-XL665) bound to a His-tagged hSOS1.
(§2) The assay buffer can contain˜5 mM HEPES pH 7.4, ˜150 mM NaCl, ˜ 1 mM DTT, 0.05% BSA and 0.0025%(v/v) Igepal. A Ras working solution is prepared in an assay buffer containing typically a suitable amount of the protein construct (e.g., GST-tagged K-Ras mutant) and the FRET donor (e.g., antiGST-Eu(K) from Cisbio, France). A SOS1 working solution is prepared in an assay buffer containing suitable amount of the protein construct (e.g., His-hSOS1) and the FRET acceptor (e.g., anti-6His-XL665 from Cisbio, France). A suitable amount of the protein construct will depend on the range of activity or range of IC50 values being detected or under investigation. For detecting IC50 within a range of 500 nM, the protein constructs of the same range of molarity can be utilized.
(§3) A fixed volume of DMSO with or without test compound is transferred into a 384-well plate. Ras working solution is added to all wells of the test plate. SOS1 working solution is added to all wells except for those that are subsequently filled the inhibitor control solution. Upon incubation for about 10 minutes or longer, the fluorescence is measured with a M1000Pro plate reader (Tecan) using HTRF detection (excitation 337 nm, emission 1: 620 nm, emission 2: 665 nm). Compounds are tested in duplicates at different concentrations (for example, 10 μM, 2.5 μM, 0.63 μM, 0.16 μM, 0.04 μM, 0.01 μM test compound). The ratiometric data (i.e., emission 2 divided by emission 1) is used to calculate IC50 values against Ras using GraphPad Prism (GraphPad software). Following this general procedure, samples were tested with or without a subject compound disclosed herein including compounds exemplified in Table 1 to assess their abilities to inhibit a K-Ras mutant relative to another mutant or WT. Signaling output measured in terms of IC50 values can be obtained, a ratio of IC50 against one mutant relative to another mutant can be calculated. For instance, a selective reduction of K-Ras G12D signaling output can be evidenced by a ratio greater than one. In particular, a selective reduction of K-Ras G12D signaling relative to K-Ras WT signaling is evidenced as the ratio of IC50 (against K-Ras WT) to IC50 (against K-Ras G12D) is greater than 1.
(In general: Time-resolved FRET reads energy transfer from a long-lived donor to a nearby acceptor.)

For assay [2], the target named is T2, K-Ras WT (Homo sapiens, UniProt P01116).
T2 construct: made in house; host or cells: E. coli BL21 (DE3)
T2 sequence (P01116 1-188 isoform P01116-2): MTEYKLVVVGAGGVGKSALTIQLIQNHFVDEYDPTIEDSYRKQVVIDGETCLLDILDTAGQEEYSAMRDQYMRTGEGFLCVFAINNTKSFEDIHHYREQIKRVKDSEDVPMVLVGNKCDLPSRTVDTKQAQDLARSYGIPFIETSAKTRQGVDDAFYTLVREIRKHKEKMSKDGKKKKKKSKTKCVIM
The experiment in a line: HTRF resonance energy transfer assay, K-Ras WT / SOS1 interaction. To be noted: HTRF assay of Example 5; read-out: IC50 against K-Ras WT.
Excerpt: as §1, §2, §3

The target of assay [3] is T3, K-Ras G12V (Homo sapiens, UniProt P01116, G12V).
T3 construct: made in house; host or cells: E. coli BL21 (DE3)
T3 sequence (P01116 1-188 isoform P01116-2 G12V): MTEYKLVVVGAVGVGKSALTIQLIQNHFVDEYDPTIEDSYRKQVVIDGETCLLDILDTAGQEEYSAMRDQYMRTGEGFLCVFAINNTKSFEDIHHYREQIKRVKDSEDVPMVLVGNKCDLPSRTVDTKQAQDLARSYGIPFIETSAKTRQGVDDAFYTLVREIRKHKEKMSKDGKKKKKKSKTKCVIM
The assay is described as follows: HTRF resonance energy transfer assay, K-Ras G12V / SOS1 interaction. The settings on record: HTRF assay of Example 5; read-out: IC50 against K-Ras G12V.
Excerpt: as §1, §2, §3

T1 sequence (P01116 1-188 isoform P01116-2 G12S): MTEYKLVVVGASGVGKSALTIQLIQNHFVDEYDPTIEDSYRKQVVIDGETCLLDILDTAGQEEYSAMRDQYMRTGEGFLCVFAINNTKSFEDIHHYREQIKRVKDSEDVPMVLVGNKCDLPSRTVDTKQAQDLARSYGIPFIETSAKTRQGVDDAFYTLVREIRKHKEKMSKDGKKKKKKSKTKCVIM

As for `N#Cc1c(N)sc2c(F)ccc(-c3c(Cl)c4c5c(nc(OC[C@@]67CCCN6C[C@H](F)C7)nc5c3F)N(CC(F)F)C(c3cnco3)CO4)c12` (single isomer, unassigned) [Compound 860], the IC50 in assay [1], in assay [2] and in assay [3] was < 100 nM in each case.

`N#Cc1c(N)sc2c(F)ccc(-c3c(Cl)c4c5c(nc(OC[C@@]67CCCN6C[C@H](F)C7)nc5c3F)N(CC(F)F)[C@H](CNC=O)CO4)c12` [Compound 627, N-(((5R)-9-(2-amino-3-cyano-7-fluorobenzo[b]thiophen-4-yl)-8-chloro-4-(2,2-difluoroethyl)-10-fluoro-2-(((2R,7aS)-2-fluorotetrahydro-1H-pyrrolizin-7a(5H)-yl)methoxy)-5,6-dihydro-4H-[1,4]oxazepino[5,6,7-de]quinazolin-5-yl)methyl)formamide]: the IC50 in assay [1] and in assay [3] was < 100 nM in each case.

Turning to `C=C(F)C1COc2c(Cl)c(-c3ccc(F)c4sc(N)c(C#N)c34)c(F)c3nc(OC[C@@]45CCCN4C[C@H](F)C5)nc(c23)N1CC(F)F` (stereo partly drawn) [Compound 651, 2-amino-4-(8-chloro-4-(2,2-difluoroethyl)-10-fluoro-2-(((2R,7aS)-2-fluorotetrahydro-1H-pyrrolizin-7a(5H)-yl)methoxy)-5-(1-fluorovinyl)-5,6-dihydro-4H-[1,4]oxazepino[5,6,7-de]quinazolin-9-yl)-7-fluorobenzo[b]thiophene-3-carbonitrile], the IC50 in assay [3] was < 100 nM.

For the compound `N#Cc1c(N)sc2c(F)ccc(-c3c(Cl)c4c5c(nc(OC[C@@]67CCCN6C[C@H](F)C7)nc5c3F)N(CC(F)F)C(C3CCN3C(=O)C3CN3)CO4)c12` (stereo partly drawn) [Compound 666, 2-amino-4-(5-(1-(aziridine-2-carbonyl)azetidin-2-yl)-8-chloro-4-(2,2-difluoroethyl)-10-fluoro-2-(((2R,7aS)-2-fluorotetrahydro-1H-pyrrolizin-7a(5H)-yl)methoxy)-5,6-dihydro-4H-[1,4]oxazepino[5,6,7-de]quinazolin-9-yl)-7-fluorobenzo[b]thiophene-3-carbonitrile], the IC50 in assay [1] and in assay [2] was < 100 nM each time.

`N#Cc1c(N)sc2c(F)ccc(-c3c(Cl)c4c5c(nc(OC[C@@]67CCCN6C[C@H](F)C7)nc5c3F)N(CC(F)F)C(C3CN(C(=O)C5CN5)C3)CO4)c12` (stereo partly drawn) [Compound 762, 2-amino-4-(5-(1-(aziridine-2-carbonyl)azetidin-3-yl)-8-chloro-4-(2,2-difluoroethyl)-10-fluoro-2-(((2R,7aS)-2-fluorotetrahydro-1H-pyrrolizin-7a(5H)-yl)methoxy)-5,6-dihydro-4H-[1,4]oxazepino[5,6,7-de]quinazolin-9-yl)-7-fluorobenzo[b]thiophene-3-carbonitrile]: the IC50 in assay [1], in assay [2] and in assay [3] was < 100 nM throughout.

For `N#Cc1c(N)sc2c(F)ccc(-c3c(Cl)c4c5c(nc(OC[C@@]67CCCN6C[C@H](F)C7)nc5c3F)N(CC(F)F)[C@@H](CNC(=O)CC3COC3)CO4)c12` [Compound 766, N-(((5S)-9-(2-amino-3-cyano-7-fluorobenzo[b]thiophen-4-yl)-8-chloro-4-(2,2-difluoroethyl)-10-fluoro-2-(((2R,7aS)-2-fluorotetrahydro-1H-pyrrolizin-7a(5H)-yl)methoxy)-5,6-dihydro-4H-[1,4]oxazepino[5,6,7-de]quinazolin-5-yl)methyl)-2-(oxetan-3-yl)acetamide], the IC50 in assay [1], in assay [2] and in assay [3] was < 100 nM throughout.

For the compound `N#Cc1c(N)sc2c(F)ccc(-c3c(Cl)c4c5c(nc(OC[C@@]67CCCN6C[C@H](F)C7)nc5c3F)N(CC(F)F)C(c3cncs3)CO4)c12` (stereo partly drawn) [Compound 789, 2-amino-4-(8-chloro-4-(2,2-difluoroethyl)-10-fluoro-2-(((2R,7aS)-2-fluorotetrahydro-1H-pyrrolizin-7a(5H)-yl)methoxy)-5-(thiazol-5-yl)-5,6-dihydro-4H-[1,4]oxazepino[5,6,7-de]quinazolin-9-yl)-7-fluorobenzo[b]thiophene-3-carbonitrile], the IC50 in assay [1], in assay [2] and in assay [3] was < 100 nM each time.

For the compound `N#Cc1c(N)sc2c(F)ccc(-c3c(Cl)c4c5c(nc(OC[C@@]67CCCN6C[C@H](F)C7)nc5c3F)N(C3C5CC3N(C(=O)C(F)F)C5)CCO4)c12` (stereo partly drawn) [Compound 886, 2-amino-4-(8-chloro-4-(2-(2,2-difluoroacetyl)-2-azabicyclo[2.1.1]hexan-5-yl)-10-fluoro-2-(((2R,7aS)-2-fluorotetrahydro-1H-pyrrolizin-7a(5H)-yl)methoxy)-5,6-dihydro-4H-[1,4]oxazepino[5,6,7-de]quinazolin-9-yl)-7-fluorobenzo[b]thiophene-3-carbonitrile], the IC50 in assay [1] and in assay [2] was < 100 nM throughout.

Regarding `N#Cc1c(N)sc2c(F)ccc(-c3c(Cl)c4c5c(nc(OC[C@@]67CCCN6C[C@H](F)C7)nc5c3F)N(CC(F)F)C(C3CCCN3C(=O)[C@H]3CN3)CO4)c12` (stereo partly drawn) [Compound 1007, 2-amino-4-(5-(1-((R)-aziridine-2-carbonyl)pyrrolidin-2-yl)-8-chloro-4-(2,2-difluoroethyl)-10-fluoro-2-(((2R,7aS)-2-fluorotetrahydro-1H-pyrrolizin-7a(5H)-yl)methoxy)-5,6-dihydro-4H-[1,4]oxazepino[5,6,7-de]quinazolin-9-yl)-7-fluorobenzo[b]thiophene-3-carbonitrile], in assay [2], the IC50 was < 100 nM.

For the compound `CC(OC(F)F)C12CC(N3CCOc4c(Cl)c(-c5ccc(F)c6sc(N)c(C#N)c56)c(F)c5nc(OC[C@@]67CCCN6C[C@H](F)C7)nc3c45)(C1)C2` (stereo partly drawn) [Compound 1081, 2-amino-4-(8-chloro-4-(3-(1-(difluoromethoxy)ethyl)bicyclo[1.1.1]pentan-1-yl)-10-fluoro-2-(((2R,7aS)-2-fluorotetrahydro-1H-pyrrolizin-7a(5H)-yl)methoxy)-5,6-dihydro-4H-[1,4]oxazepino[5,6,7-de]quinazolin-9-yl)-7-fluorobenzo[b]thiophene-3-carbonitrile], the IC50 in assay [1], in assay [2] and in assay [3] was < 100 nM throughout.

Take `N#Cc1c(N)sc2c(F)ccc(-c3c(Cl)c4c5c(nc(OC[C@@]67CCCN6C[C@H](F)C7)nc5c3F)N(CC(F)F)[C@H](C(F)F)CO4)c12` [Compound 1099, 2-amino-4-((S)-8-chloro-4-(2,2-difluoroethyl)-5-(difluoromethyl)-10-fluoro-2-(((2R,7aS)-2-fluorotetrahydro-1H-pyrrolizin-7a(5H)-yl)methoxy)-5,6-dihydro-4H-[1,4]oxazepino[5,6,7-de]quinazolin-9-yl)-7-fluorobenzo[b]thiophene-3-carbonitrile]: the IC50 in assay [1], in assay [2] and in assay [3] was < 100 nM in each case.

Regarding `C[C@@H](O)[C@@H]1COc2c(Cl)c(-c3ccc(F)c4sc(N)c(C#N)c34)c(F)c3nc(OC[C@@]45CCCN4C[C@H](F)C5)nc(c23)N1CC(F)F` [Compound 1111, 2-amino-4-((5S)-8-chloro-4-(2,2-difluoroethyl)-10-fluoro-2-(((2R,7aS)-2-fluorotetrahydro-1H-pyrrolizin-7a(5H)-yl)methoxy)-5-((R)-1-hydroxyethyl)-5,6-dihydro-4H-[1,4]oxazepino[5,6,7-de]quinazolin-9-yl)-7-fluorobenzo[b]thiophene-3-carbonitrile], the IC50 in assay [3] was < 100 nM.

On to `C[C@@H]1CC(CO)Oc2c(Cl)c(-c3ccc(F)c4sc(N)c(C#N)c34)c(F)c3nc(OC[C@@]45CCCN4C[C@H](F)C5)nc(c23)N1` (stereo partly drawn) [Compound 1210, 2-amino-4-((5R)-9-chloro-11-fluoro-2-(((2R,7aS)-2-fluorotetrahydro-1H-pyrrolizin-7a(5H)-yl)methoxy)-7-(hydroxymethyl)-5-methyl-4,5,6,7-tetrahydro-[1,5]oxazocino[4,3,2-de]quinazolin-10-yl)-7-fluorobenzo[b]thiophene-3-carbonitrile], for which the half-maximal inhibitory concentration (IC50) in assay [3] is < 100 nM.
